Source: patent US4816586A, “Delta opioid receptor antagonists” (Regents of the University of Minnesota, priority 1987, dated 1989)

Columns and labels:
Assay type in all cases: cell-based
delta opioid receptor [1] = target: T1, delta opioid receptor (Mus musculus, UniProt P32300); assay: Comparison as delta antagonist with ICI 174864 and M8008
delta opioid receptor [2] = target: T1, delta opioid receptor; assay: Antagonism of DADLE (delta agonist) in the mouse vas deferens (MVD) preparation; design: Both vasa deferentia were dissected out of mice; from tissue; host or cells: mouse vas deferens; key to Ke, DADLE: No agonist antagonism observed; conditions: for Kb: compound 100 or 200 nM, 15 min incubation, read-out: Ke, DADLE; for relative delta antagonist potency: compared within the series
Protocol: (§1) The organ bath was maintained at 37° C.
The results of these bioassays are summarized on Table IV, below.

mu opioid receptor = mu opioid receptor (Cavia porcellus, UniProt A0ACM8Q262); assay: Antagonism of morphine (mu agonist) in the guinea pig ileum (GPI) preparation; design: key to Ke, M: No agonist antagonism observed; conditions: for Kb: compound 100 or 200 nM, 15 min incubation, read-out: Ke
Sequence of mu opioid receptor (A0ACM8Q262 1-400): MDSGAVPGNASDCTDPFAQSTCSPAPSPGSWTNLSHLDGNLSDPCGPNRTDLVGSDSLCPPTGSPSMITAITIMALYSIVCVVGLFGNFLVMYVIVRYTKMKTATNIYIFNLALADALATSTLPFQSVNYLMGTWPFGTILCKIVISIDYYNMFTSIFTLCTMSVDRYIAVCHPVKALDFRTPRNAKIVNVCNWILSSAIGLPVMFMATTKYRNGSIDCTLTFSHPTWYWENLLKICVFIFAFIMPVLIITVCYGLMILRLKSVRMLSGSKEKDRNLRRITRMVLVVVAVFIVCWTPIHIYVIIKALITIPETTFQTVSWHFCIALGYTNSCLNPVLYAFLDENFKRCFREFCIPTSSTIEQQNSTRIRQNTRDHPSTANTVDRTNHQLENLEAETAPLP
Protocol: (§2) 1. Guinea Pig Ileal Longitudinal Muscle (GPI). Ilea from guinea pigs were taken approximately 10 cm from the ileocaecal junction, and a strip of longitudinal muscle with the myenteric plexus attached was prepared by method of Rang et al., Brit. J. Pharmacol., 22, 356 (1964), the disclosure of which is incorporated by reference herein. A 1 cm portion of this strip was then mounted between two platinum electrodes placed in a 10 ml organ bath and connected to an isometric transducer; contractions were recorded on a polygraph. Contractions of the ileal strip were initiated by supramaximal rectangular pulses in all preparations (80 V of 0.5 ms duration at a frequency of 0.1 Hz). Krebs bicarbonate solution containing 1.25 μM chlorpheniramine maleate was the bathing solution and was continuously bubbled with 95% O2 and 5% CO2. The organ bath was maintained at 36°-37° C. The longitudinal muscle strip was allowed to equilibrate with continuous stimulation for a minimum of 90 min.

kappa opioid receptor = target: T2, kappa opioid receptor (Cavia porcellus, UniProt P41144); assay: Antagonism of ethylketazocine (kappa agonist) in the guinea pig ileum (GPI) preparation; design: key to Ke, EK: No agonist antagonism observed; conditions: for Kb: compound 100 or 200 nM, 15 min incubation, read-out: Ke, EK
T2 construct: a strip of longitudinal muscle with the myenteric plexus attached was prepared; from tissue; host or cells: guinea pig ileum longitudinal muscle with myenteric plexus
T2 sequence (P41144 whole entry): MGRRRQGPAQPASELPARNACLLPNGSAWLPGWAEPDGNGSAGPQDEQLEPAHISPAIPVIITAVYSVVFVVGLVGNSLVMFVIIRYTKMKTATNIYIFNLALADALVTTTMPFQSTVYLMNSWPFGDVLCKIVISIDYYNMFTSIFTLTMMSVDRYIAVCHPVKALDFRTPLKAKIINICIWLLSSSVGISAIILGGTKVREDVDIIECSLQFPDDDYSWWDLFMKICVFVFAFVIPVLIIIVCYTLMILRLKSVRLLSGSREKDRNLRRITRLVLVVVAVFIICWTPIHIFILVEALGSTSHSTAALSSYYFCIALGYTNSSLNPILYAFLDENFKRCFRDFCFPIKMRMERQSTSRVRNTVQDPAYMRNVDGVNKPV
Protocol: as §2

[3] = test system: mouse vas deferens (MVD) and guinea pig ileum (GPI) preparations; assay: Agonist activity in the MVD and GPI preparations
Protocol: as §2, §1

[4] = compound 7 tested at 5 nM or less

T1 sequence (P32300 whole entry): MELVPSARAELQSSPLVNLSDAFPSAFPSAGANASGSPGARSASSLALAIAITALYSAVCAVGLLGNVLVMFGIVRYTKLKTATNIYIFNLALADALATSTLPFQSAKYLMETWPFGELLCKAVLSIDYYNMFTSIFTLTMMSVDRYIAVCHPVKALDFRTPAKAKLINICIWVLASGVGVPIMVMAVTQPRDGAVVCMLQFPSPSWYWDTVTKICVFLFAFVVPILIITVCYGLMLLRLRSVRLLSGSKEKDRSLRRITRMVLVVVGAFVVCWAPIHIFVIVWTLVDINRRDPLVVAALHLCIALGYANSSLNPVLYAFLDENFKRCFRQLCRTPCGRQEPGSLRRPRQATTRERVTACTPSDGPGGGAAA

| SMILES | Kb (delta opioid receptor [2]; agonist DADLE, MVD) [nM] | relative delta antagonist potency (delta opioid receptor [2]) | Kb (mu opioid receptor) [nM] | Kb (kappa opioid receptor) [nM] | further results |
| --- | --- | --- | --- | --- | --- |
| Oc1ccc2c3c1O[C@H]1c4[nH]c5ccccc5c4C[C@@]4(O)[C@@H](C2)N(CC2CC2)CC[C@]314 [Compound 1, 17-Cyclopropylmethyl-6,7-dehydro-4,5α-epoxy-3,14-dihydroxy-6,7,2',3'-indolomorphinan] | 0.22 | an order of magnitude more potent than its substituted congeners | – | – | potency compared with ICI 174864 (delta opioid receptor [1]): considerably more potent than the peptide delta antagonist, ICI 174864; potency relative to the peptide delta antagonist ICI 174864 (delta opioid receptor [1]; in one assay): at least 30 times; antagonism of the effect of the delta agonist DADLE / delta antagonist activity (delta opioid receptor [2]): highly active delta antagonist |
| Cn1c2c(c3ccccc31)C[C@@]1(O)[C@H]3Cc4ccc(O)c5c4[C@@]1(CCN3CC1CC1)[C@H]2O5 [Compound 2] | 1.5 | reduction of antagonist potency | 12.5 | 22.2 | – |
| Oc1ccc2c3c1O[C@H]1c4[nH]c5ccc(F)cc5c4C[C@@]4(O)[C@@H](C2)N(CC2CC2)CC[C@]314 [Compound 3] | 2 | – | 61.7 | 46.2 | – |
| COc1ccc2[nH]c3c(c2c1)C[C@@]1(O)[C@H]2Cc4ccc(O)c5c4[C@@]1(CCN2CC1CC1)[C@H]3O5 [Compound 4] | 5.7 | – | – | 12.6 | – |
| Cc1ccc2[nH]c3c(c2c1)C[C@@]1(O)[C@H]2Cc4ccc(O)c5c4[C@@]1(CCN2CC1CC1)[C@H]3O5 [Compound 5] | 4.2 | – | > 160 | > 250 | – |
| O=[N+]([O-])c1ccc2[nH]c3c(c2c1)C[C@@]1(O)[C@H]2Cc4ccc(O)c5c4[C@@]1(CCN2CC1CC1)[C@H]3O5 [Compound 6] | 168 | – | 92 | ≥ 200 | – |
| CN1CC[C@]23c4c5ccc(O)c4O[C@H]2c2[nH]c4ccccc4c2C[C@@]3(O)[C@H]1C5 [Compound 7] | – | – | – | – | Ke, M (mu opioid receptor; [4]): e; Ke, EK (kappa opioid receptor; [4]): e; agonist activity [3]: partial agonist activity; relative agonist potency ([3]; compared with the N-cyclopropyl analogues): substantially more potent as an agonist than the N-cyclopropyl analogues; Ke, DADLE (delta opioid receptor [2]; agonist DADLE, MVD, compound 7 tested at 5 nM or less): e |
| Oc1ccc2c3c1O[C@H]1c4oc5ccccc5c4C[C@@]4(O)[C@@H](C2)N(CC2CC2)CC[C@]314 [Compound 8, 6,7,2',3'-Benzofurano-17-cyclopropylmethyl-6,7-dehydro-3,14-dihydroxy-4,5α-epoxymorphinan] | 1.8 | less potent | 30.8 | 50.8 | antagonism of the effect of the delta agonist DADLE / delta antagonist activity (delta opioid receptor [2]): retains substantial delta antagonist activity; relative delta selectivity (delta opioid receptor [2]; compared with compound 1): less selective than 1 |
| Oc1ccc2[nH]c3c(c2c1)C[C@@]1(O)[C@H]2Cc4ccc(O)c5c4[C@@]1(CCN2CC1CC1)[C@H]3O5 [Compound 9] | – | – | – | 68.5 | – |
| Oc1ccc2c3c1O[C@H]1c4[nH]c5cccc(F)c5c4C[C@@]4(O)[C@@H](C2)N(CC2CC2)CC[C@]314 [Compound 10] | 5.5 | – | > 125 | > 170 | – |
| Oc1ccc2c3c1O[C@H]1c4[nH]c5c(F)cccc5c4C[C@@]4(O)[C@@H](C2)N(CC2CC2)CC[C@]314 [Compound 11] | 0.35 | – | 5.3 | > 330 | – |
| Cc1cccc2c3c([nH]c12)[C@@H]1Oc2c(O)ccc4c2[C@@]12CCN(CC1CC1)[C@H](C4)[C@]2(O)C3 [Compound 13] | 1.5 | – | 19.1 | > 330 | – |
| COc1cccc2c3c([nH]c12)[C@@H]1Oc2c(O)ccc4c2[C@@]12CCN(CC1CC1)[C@H](C4)[C@]2(O)C3 [Compound 14] | 6.6 | – | 35 | – | – |
| Oc1ccc2c3c1O[C@H]1c4nc5ccccc5nc4C[C@@]4(O)[C@@H](C2)N(CC2CC2)CC[C@]314 [Compound 16, 6,7,2',3'-benzopyrazino-17-cyclopropylmethyl-6,7-dehydro-3,14-dihydroxy-4,5α-epoxymorphinan] | 1.4 | A similar relationship was observed | – | 13.4 | – |
| Oc1ccc2c3c1O[C@H]1c4nc5ccccc5cc4C[C@@]4(O)[C@@H](C2)N(CC2CC2)CC[C@]314 [Compound 17, 17-cyclopropylmethyl-6,7-dehydro-4,5α-epoxy-3,14-dihydroxy-6,7,2',3'-quinolinomorphinan] | 2.7 | A similar relationship was observed | – | 16.3 | – |
